In patent US20110124700A1, “SYSTEMS AND METHODS OF CANCER STAGING AND TREATMENT” (priority 2008, published 2011):

Columns and labels:
Assay in all cases: sunitinib treatment, viability of NSCLC cell line (IC50)
H358 = assay type: cell-based
H157 = assay type: cell-based
H520 = assay type: cell-based
H322C = system: H322C
H1703 = assay type: cell-based
A549 = assay type: cell-based

CCN(CC)CCNC(=O)c1c(C)[nH]c(/C=C2\C(=O)Nc3ccc(F)cc32)c1C [sunitinib, N-[2-(diethylamino)ethyl]-5-[(Z)-(5-fluoro-1,2-dihydro-2-oxo-3H-indol-3-ylidine)methyl]-2,4-dimethyl-1H-pyrrole-3-carboxamide]
IC50 (H358; Homo sapiens, NCI-H358, H358 cell line, sunitinib): > 10 µM | sensitivity of cell line to sunitinib (H358; untransfected H358): resistant (sunitinib resistant (defined solely for the purposes of this example as having IC50>9 μM)) | IC50 (H157; Homo sapiens, NCI-H157, H157 cell line, sunitinib): > 10 µM | sensitivity of cell line to sunitinib (H157; untransfected H157): resistant (sunitinib resistant (defined solely for the purposes of this example as having IC50>9 μM)) | IC50 (H520; Homo sapiens, NCI-H520, H520 cell line, sunitinib): 1 to 3 µM | sensitivity of cell line to sunitinib (H520; untransfected H520): sensitive (sunitinib sensitive (defined solely for the purposes of this example as having an IC50<3 μM)) | IC50 (H322C): 9 to 10 µM | sensitivity of cell line to sunitinib (H322C; untransfected H322C): resistant (sunitinib resistant (defined solely for the purposes of this example as having IC50>9 μM)) | IC50 (H1703; Homo sapiens, NCI-H1703, H1703 cell line, sunitinib): < 0.5 µM | sensitivity of cell line to sunitinib (H1703; untransfected H1703): sensitive (sunitinib sensitive (defined solely for the purposes of this example as having an IC50<3 μM)) | IC50 (A549; Homo sapiens, A549 cell line, sunitinib): > 10 µM | sensitivity of cell line to sunitinib (A549; untransfected A549): resistant (sunitinib resistant (defined solely for the purposes of this example as having IC50>9 μM))
